Data taken from patent publication US5610297A, “Peptides ketoamides” (Georgia Tech Research Corp., priority 1995, dated 1997).

How the values were obtained:
[1] = tested on: Calpain-mediated breakdown of spectrin in platelets; assay: Platelet membrane permeability assay; type: cell-based, rat; parameters: unit not given here; conditions: numeric value, unit not given
Procedure: (§1) Platelet membrane permeability assay. Calpain-mediated breakdown of spectrin was measured by quantitative densitometry of the calpain-specific 150/155 kDa spectrin fragment doublet [see Siman et al., Proc. Natl. Acad. Sci. USA 81, 3572-3576 (1984)]. Platelets were isolated by a modification of the method of Ferrell and Martin [J. Biol. Chem. 264, 20723-20729 (1989)]. Blood (15-20 ml) was drawn from male Sprague-Dawley rats into 1/10th volume of 100 mM EDTA-citrate, and centrifuged 10 minutes at 2000 rpm in a clinical centrifuge at room temperature. […] Platelets were washed once in 15 ml buffer 1, then resuspended to 10^7 cells/ml in buffer 2 (136 mM NaCl, 2.7 mM KCl, 0.42 mM NaH2 PO4, 12 mM NaHCO3, 2mM MgCl, 1 mg/ml BSA (Sigma), 5.6 mM glucose, 20 mM HEPES (Sigma) pH 7.4) and allowed to "rest" for a minimum of 10 minutes at room temperature before use.
(§2) Inhibitors were added from stock solutions made fresh in DMSO. 100 μl platelets, suspended to 10^7 cells/ml in buffer 2, were incubated with 1 μl of an inhibitor solution for 5 minutes at room temperature prior to the addition of 2 mM Ca^2+ and 1 uM A23 187. After 10 minutes total exposure to inhibitor (5 minutes exposure to ionophore) at room temperature, platelets were reisolated at 14,000 rpm for 10 sec in a Beckman microfuge, dissolved in SDS-PAGE sample buffer, and heated to 90° C. for 3 minutes.
(§3) Samples were subjected to SDS-PAGE in 4-12% gradient mini gels (Novex) and transferred to nitrocellulose (Schleicher and Schuell 0.45 um) by electroblotting. Filters were blocked for 10 minutes in 0.25% gelatin, 1% BSA, 0.25% triton X100, 0.9% NaCl, 10 mM Tris-Cl pH 7.5, incubated overnight in the same solution containing antibody to rat spectrin, washed 3×10 minutes with 10 mM Tris-Cl pH 7.5, 0.5% triton X100, incubated 4 hours in wash buffer plus alkaline phosphatase conjugated goat anti-rabbit antibody (Biorad), and washed as above. Blots were developed using the Biorad AP conjugate substrate kit. Quantitative densitometry was used to obtain values for the intact spectrin bands and the 150/155 kDa breakdown product doublet.

[2] = Half-life in plasma; type: in vitro ADME; conditions: unit inferred, unit assumed
[3] = biological target: Calpain II from rabbit muscle; assay: Inhibition of calpain II (Suc-Leu-Tyr-AMC hydrolysis); type: biochemical
Procedure: (§4) Materials and Methods. HEPES, heparin, and A23187 were obtained from Calbiochem. Suc-Leu-Tyr-AMC and chromogenic substrates were obtained from Sigma. Calpain I was purified from human erythrocytes according to the method of Kitahara (Kitahara et al., J. Biochem. 95, 1759-1766) omitting the Blue-Sepharose step. Calpain II from rabbit muscle and cathepsin B were purchased from Sigma. Papain was purchased from Calbiochem.
(§5) Assay of Inhibitory Potency. Peptide α-ketoamides were assayed as reversible enzyme inhibitors. Various concentrations of inhibitors in Me2 SO were added to the assay mixture which contained buffer and substrate. The reaction was started by the addition of the enzyme and the hydrolysis rates were followed spectrophotometrically or fluorimetrically.
(§6) Calpain I from human erythrocytes and calpain II from rabbit were assayed using Suc-Leu-Tyr-AMC [Sasaki et al., J. Biol. Chem. 259, 12489-12494 (1984); incorporated herein by reference], and the AMC (7-amino-4-methylcoumarin) release was followed fluorimetrically (excitation at 380 nm, and emmision at 460 nm). Calpains were assayed in 25 mM Tris pH=8.0, 10 mM CaCl2. Fluorescence was followed using a Gilson FL-1A fluorometer or a Perkin-Elmer 203 Fluorescence spectrometer. Cathepsin B was assayed in 20 mM sodium acetate pH=5.2, 0.5 mM dithiothreitol using Bz-Phe-Val-Arg-p-nitroanilide as substrate. Alternately, cathepsin B was assayed with Z-Arg-Arg-AFC [Barrett and Kirschke, Methods Enzymol. 80, 535-561 (1981); incorporated herein by reference], and the AFC (7-amino-4-trifluoromethylcoumarin) release was followed fluorimetrically (excitation at 400 nm and emmision at 505 nm). Papain was assayed in 100 mM KPO4, 1 mM EDTA, 2.5 mM cysteine pH=6.0 using Bz-Arg-AMC or Bz-Arg-NA [Kanaoka et al., Chem. Plmrm. Bull. 25, 3126-3128 (1977); incorporated herein by reference] as a substrate. The AMC (7-amino-4-methylcoumarin) release was followed fluorimetrically (excitation at 380 nm, and emmision at 460 nm). Enzymatic hydrolysis rates were measured at various substrate and inhibitor concentrations, and KI values were determined by either Lineweaver-Burk plots or Dixon plots.
(§7) A 0.1M Hepes, 0.5M NaCl, pH 7.5 buffer was utilized for human leukocyte elastase (HLE), porcine pancreatic elastase (PPE), chymotrypsin and cathepsin G. A 0.1 Hepes, 0.01M CaCl2, pH 7.5 buffer was utilized for trypsin, plasmin, and coagulation enzymes. A 50 mM Tris-HCl, 2 mM EDTA, 5 mM cysteine, pH 7.5 was used as a buffer for papain. A 88 mM KH2 PO4, 12 mM Na2 HPO4, 1.33 mM EDTA, 2.7 mM cysteine, pH 6.0 solution was used as a buffer for cathepsin B. A 20 mM Hepes, 10 mM CaCl2, 10 mM mercatoethanol, pH 7.2 buffer was utilized for calpain I and calpain II.

[4] = biological target: cathepsin B; assay: Inhibition of cathepsin B; type: biochemical; conditions: read-out: KI Cath B
Procedure: as §4, §5, §6, §7

[5] = biological target: chymotrypsin (Bos taurus, UniProt P00766, DEL14-15/DEL147-148); assay: Inhibition of chymotrypsin (Suc-Val-Pro-Phe-NA hydrolysis); type: biochemical, bovine
Procedure: as §5, §7
(§8) HLE and PPE were assayed with MeO-Suc-Ala-Ala-Pro-Val-NA and Suc-Ala-Ala-Ala-NA, respectively [Nakajima et al., J. Biol. Chem. 254, 4027-4032 (1979); incorporated herein by reference]. Human leukocyte cathepsin G and chymotrypsin Aα were assayed with Suc-Val-Pro-Phe-NA [Tanaka et al., Biochemistry 24, 2040-2047 (1985); incorporated herein by reference]. The hydrolysis of peptide 4-nitroanilides was measured at 410 nm [ε410 =8800 M^-1 cm^-1; Erlanger et al., Arch. Biochem. Biophys. 95, pp 271-278 (1961); incorporated herein by reference]. Trypsin, thrombin, human plasma kallikrein, porcine pancreatic kallikrein, human factor XIa, and human plasmin were assayed with Z-Arg-SBzl or Z-Gly-Arg-SBu-i [McRae et al., Biochemistry 20, 7196-7206 (1981); incorporated herein by reference]. All peptide thioester hydrolysis rates were measured with assay mixtures containing 4,4'-dithiodipyridine [ε324 =19800 M^-1 cm^-1; Grasetti & Murray, Arch. Biochem. Biophys. 119, 41-49 (1967); incorporated herein by reference].

[6] = tested on: Calpain-mediated breakdown of spectrin in platelets; assay: Platelet membrane permeability assay; type: cell-based, rat; parameters: key: +++ = excellent activity; ++ = good activity; + = moderate activity; quantitative measurements not yet complete; conditions: class symbols; quantitative measurements not yet complete
Procedure: as §1, §2, §3

[7] = Half-life in liver; type: in vitro ADME; conditions: unit inferred, unit assumed
[8] = biological target: porcine pancreatic elastase (PPE) (Sus scrofa, UniProt P00772); assay: Inhibition of PP elastase (Suc-Ala-Ala-Ala-NA hydrolysis); type: biochemical
Chain of porcine pancreatic elastase (PPE) (P00772 27-266): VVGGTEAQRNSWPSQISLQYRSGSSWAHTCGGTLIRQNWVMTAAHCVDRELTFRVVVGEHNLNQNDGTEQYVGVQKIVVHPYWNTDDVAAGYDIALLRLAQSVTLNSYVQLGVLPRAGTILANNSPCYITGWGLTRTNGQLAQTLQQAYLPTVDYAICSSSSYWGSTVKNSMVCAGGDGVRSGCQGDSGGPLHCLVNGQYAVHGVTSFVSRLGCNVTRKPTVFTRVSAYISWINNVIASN
Procedure: as §5, §7, §8

[9] = biological target: T1, papain (Carica papaya, UniProt P00784); conditions: reported by Hu and Abeles; cited from earlier work
T1 sequence (P00784 134-345): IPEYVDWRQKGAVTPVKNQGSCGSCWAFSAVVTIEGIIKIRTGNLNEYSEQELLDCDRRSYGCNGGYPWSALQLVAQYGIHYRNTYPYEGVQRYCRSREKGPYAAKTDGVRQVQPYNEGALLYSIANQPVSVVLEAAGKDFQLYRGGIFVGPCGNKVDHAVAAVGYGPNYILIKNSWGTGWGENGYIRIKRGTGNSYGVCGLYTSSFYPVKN

[10] = biological target: cathepsin B (Homo sapiens, UniProt P07858); conditions: reported by Hu and Abeles; cited from earlier work

Row | SMILES | t 1/2 plasma [2] [h] | Ki [3] [µM] | Ki [4] [µM] | Ki [5] [µM] | t 1/2 liver [7] [h] | Ki [8] [µM] | platelet (Activity in the Platelet Assay) [1] | platelet (Activity in the Platelet Assay) [6] | Ki [9] [µM] | Ki [10] [µM]
1 | CCOC(=O)C(=O)C(CCSC)NC(=O)C(CC(C)C)NC(=O)OCc1ccccc1 (centres unmarked) [Z--Leu--Met--COOEt] | 0.133 |  |  |  |  |  |  | + |  | 
2 | CC[C@H](NC(=O)[C@H](CC(C)C)NC(=O)OCc1ccccc1)C(=O)C(=O)OCc1ccccc1 [Z--Leu--Abu--COOBzl] |  |  |  |  |  |  |  | ++ |  | 
3 | CCC(NC(=O)C(CC(C)C)NC(=O)OCc1ccccc1)C(=O)C(=O)O (centres unmarked) [Z--Leu--Abu--COOH] | > 1 |  |  |  | > 1 |  | 8 |  |  | 
4 | CCNC(=O)C(=O)CNC(=O)[C@H](Cc1ccccc1)NC(=O)OCc1ccccc1 [Z-Phe-Gly-CO--NH-Et] |  |  |  |  |  |  |  |  | 1.5 | 4
5 | CCOC(=O)C(=O)[C@H](Cc1ccccc1)NC(=O)[C@H](CC(C)C)NC(=O)[C@H](CC(C)C)NC(=O)OCc1ccccc1 [Z--Leu--Leu--Phe--COOEt] |  |  |  |  |  |  |  | ++ |  | 
6 | CCC(NC(=O)C(CC(C)C)NC(=O)OCc1ccccc1)C(=O)C(=O)NCC(C)C (stereo not drawn) [Z--Leu--Abu--CONH--iBu, Z-Leu-Abu-CONH-iBu] | > 1 | 0.14 | 4 | > 300 |  | 40 | 28 |  |  | 
7 | CC(C)CC(NC(=O)OCc1ccccc1)C(=O)NC(Cc1ccccc1)C(=O)C(=O)OCc1ccccc1 (centres unmarked) [Z--Leu--Phe--COOBz] | 0.0317 |  |  |  |  |  |  | ++ |  | 

More lines, main results first:

Row | t 1/2 plasma [2] [h] | Ki [3] [µM] | Ki [4] [µM] | Ki [5] [µM] | t 1/2 liver [7] [h] | Ki [8] [µM] | SMILES | platelet (Activity in the Platelet Assay) [1] | platelet (Activity in the Platelet Assay) [6] | Ki [9] [µM] | Ki [10] [µM]
8 | > 1 | 0.065 | 4 | 24 |  |  | CC(C)CNC(=O)C(=O)[C@H](Cc1ccccc1)NC(=O)[C@H](CC(C)C)NC(=O)OCc1ccccc1 [Z--Leu--Phe--CONH--iBu, Z-Leu-Phe-CONH-iBu] | 22 |  |  | 
9 | 0.128 |  |  |  |  |  | CCCCOC(=O)C(=O)[C@H](Cc1ccccc1)NC(=O)[C@H](CC(C)C)NC(=O)OCc1ccccc1 [Z--Leu--Phe--COOnBu] |  | +++ |  | 
10 | > 1 | 0.25 | 8 | > 300 | > 1 | 2 | CCCNC(=O)C(=O)[C@H](CC)NC(=O)[C@H](CC(C)C)NC(=O)OCc1ccccc1 [Z--Leu--Abu--CONH--nPr, Z-Leu-Abu-CONH-nPr] | 70 |  |  | 
11 | > 1 | 0.028 | 3 | 8 | > 1 | > 100 | CCCCNC(=O)C(=O)C(Cc1ccccc1)NC(=O)C(CC(C)C)NC(=O)OCc1ccccc1 (stereo not drawn) [Z--Leu--Phe--CONH--nBu, Z-Leu-Phe-CONH-nBu] | 38 |  |  | 
12 | > 1 | 0.35 | 2 | > 300 | > 1 |  | CCC(NC(=O)C(CC(C)C)NC(=O)OCc1ccccc1)C(=O)C(=O)NCc1ccccc1 (stereo not drawn) [Z--Leu--Abu--CONH--Bzl, Z-Leu-Abu-CONH-Bzl] | 1.5 |  |  | 
13 | > 1 |  |  |  | > 1 |  | CC(C)CC(NC(=O)OCc1ccccc1)C(=O)NC(Cc1ccccc1)C(=O)C(=O)O (centres unmarked) [Z--Leu--Phe--COOH] | 6.5 |  |  | 
